The values that follow are results of earlier work, collected in patent US7179486B1, “Process for preparing sustained release tablets” (Nostrum Pharmaceuticals, Inc., priority 1997, dated 2007).

As for `O=C(O)c1cccnc1` [niacin, Niacin], the “dosage release within a one hour period causing a flushing response in most subjects” value is “more than 75 mg”.
